Values quoted from earlier work in patent publication US20110130383A1, “Use of Ion Channel Modulators in the Prophylaxis and Treatment of Inflammatory and Immunological Diseases” (LECTUS THERAPEUTICS LIMITED, priority 2006, published 2011).

Columns and labels:
Kv1.3 channels = Kv1.3 channels (Homo sapiens, UniProt P22001); conditions: inhibition of Kv1.3 channels versus cardiac Kv1.5 channels
[1] = rats, 28-day, administered by gavage; tissues including those reported to express Kv1.3 channels

Kv1.3 channels, sequence (P22001 whole entry): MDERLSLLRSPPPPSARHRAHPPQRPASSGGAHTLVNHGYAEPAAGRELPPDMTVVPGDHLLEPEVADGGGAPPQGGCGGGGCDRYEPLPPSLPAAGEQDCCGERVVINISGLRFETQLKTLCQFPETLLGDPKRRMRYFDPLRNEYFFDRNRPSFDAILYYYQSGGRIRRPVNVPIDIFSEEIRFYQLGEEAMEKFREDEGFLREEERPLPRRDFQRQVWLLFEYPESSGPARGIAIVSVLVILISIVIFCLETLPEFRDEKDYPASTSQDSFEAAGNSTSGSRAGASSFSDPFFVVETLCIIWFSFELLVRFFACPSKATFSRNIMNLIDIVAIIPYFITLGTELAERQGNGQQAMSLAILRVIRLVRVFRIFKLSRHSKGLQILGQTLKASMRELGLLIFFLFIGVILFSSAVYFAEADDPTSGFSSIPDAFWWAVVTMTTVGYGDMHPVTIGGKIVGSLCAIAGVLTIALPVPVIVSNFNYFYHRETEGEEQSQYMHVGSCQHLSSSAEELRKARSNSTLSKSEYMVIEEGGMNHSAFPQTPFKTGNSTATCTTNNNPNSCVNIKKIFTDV

selectivity over cardiac Kv1.5 channels (Kv1.3 channels): 23 fold
SMILES: O=c1ccc2c(OCCCCOc3ccccc3)c3ccoc3cc2o1 [PAP-1]
histopathological changes in tissues examined [1]: failed to induce any histopathological changes
